We go through ten compounds from patent publication US11453671B2, “Pyrazolopyrimidine inhibitors of JAK kinases and uses thereof” (Genentech, Inc., priority 2020, dated 2022).

In series [1] the target is T1, recombinant human JAK1 kinase domain protein (Residues 854-1154) (Homo sapiens, UniProt P23458).
T1 construct: human JAK1 kinase domain protein (Residues 854-1154); purchased Proteros Biostructures GmbH (Martinsried, Germany); host or cells: insect cells
Put plainly: JAK1 biochemical assay (microfluidic mobility shift, peptide phosphorylation). The settings on record: 25 μM ATP, 1 nM total JAK1; read-out: Enzyme JAK1 Ki. From the text:
JAK1 and JAK2 Biochemical Assays

Series [2] in a line: Mouse lung tissue binding (equilibrium dialysis, RED). Format: in vitro ADME. The settings on record: mouse lung tissue binding, % bound (Table 3). On the procedure: Mouse lung tissue binding. A high bound fraction or percentage of JAK1/JAK2 inhibitors to lung tissue may be undesirable since it can reduce the amount of free drug available to inhibit JAK1 or JAK2.
(a) Tissue binding experiments were performed in triplicate (n=3) using a Single-Use RED Plate by following the standard protocol. Initially, individual drugs were spiked to tissue homogenates (pH 7.4) to achieve a final concentration of 1 μM, and then 300 μL of drug-tissue homogenate mixtures were transferred to the donor wells of the RED plate which was pre-loaded with 500 μL phosphate buffer saline (133 mM) on the receiver wells. The RED plate was sealed with a gas permeable membrane and placed in a shaking incubator (450 rpm, VWR Symphony™) for 6 hr at 37° C. with 5% CO2. At the end of incubation, aliquots of 30 μL samples were taken out of the RED device and matrix equalized with an equal volume of tissue homogenates or buffer, and resulting samples were then immediately quenched with ice cold acetonitrile (sample:acetonitrile 1:4) containing either propranolol or labetalol as an internal standard. After shaking for 15 min at 500 rpm on a Thermo Scientific Compact Digital MicroPlate Shaker, all samples were then subjected to centrifugation at 3700 rpm for 15 min (Beckman Coulter Allegra X 12R) to remove plasma protein. Subsequently, supernatants were collected and then diluted with an equal volume of water prior to LC-MS/MS analysis.
(b) In an alternate procedure, the extent of lung tissue binding of test compound to mouse lung homogenate may also be determined by equilibrium dialysis using Pierce RED (rapid equilibrium dialysis) devices (Fisher Scientific 89811 & 89809). A 10 mM solution of compound in DMSO was prepared and diluted to 1 mM with DMSO. An aliquot of this 1 mM (4 μL) was added into lung homogenate (dilution factor of 1:9, lung tissue:potassium phosphate buffer (0.05 M, pH 7.4)) to give a final compound incubation concentration of 5 μM with solvent accounting for 0.5% (v/v) of the final incubation volume.
For each assay, the percentage lung tissue bound was determined in triplicate. Lung homogenate (200 μL) was loaded into one side of a RED device insert, in triplicate, and 350 μL of potassium phosphate buffer was loaded into the other side. The RED devices were sealed and incubated for 4 hours at ca. 37° C. on an orbital shaker (˜150 rpm).
Following incubation, an aliquot of lung homogenate (8 μL) and an aliquot of dialysate (72 μL) were matrix matched (lung homogenate with 72 μL phosphate buffer, dialysate with 8 μL lung homogenate) ahead of analysis. Protein was precipitated from the samples with the addition of 160 μL of acetonitrile containing internal standard. The same matrix matching and protein precipitation procedure was performed on lung homogenate aliquots sampled at the start of the experiment (t=0 min samples), for the assessment of the mass balance. The quenched samples were centrifuged (4000 rpm, 30 min, 4° C.) and the resultant supernatant diluted with water (3:1 (v/v), supernatant: water) and the samples analysed for parent compound by liquid chromatography mass spectrometry assay.
The unbound fraction (fu) in lung homogenate was determined from the ratio of the dialysate to homogenate peak area, corrected to take into account the lung homogenate dilution (D) to enable an estimate of whole lung tissue binding using the following equations: Undiluted fu=(1/D)/[((1/Apparent fu)−1)+(1/D)] Corrected fraction bound (%)=(1-undiluted fu)*100
(In general: Equilibrium dialysis compares concentrations on both sides of a semipermeable membrane.)

T1 sequence (P23458 854-1154): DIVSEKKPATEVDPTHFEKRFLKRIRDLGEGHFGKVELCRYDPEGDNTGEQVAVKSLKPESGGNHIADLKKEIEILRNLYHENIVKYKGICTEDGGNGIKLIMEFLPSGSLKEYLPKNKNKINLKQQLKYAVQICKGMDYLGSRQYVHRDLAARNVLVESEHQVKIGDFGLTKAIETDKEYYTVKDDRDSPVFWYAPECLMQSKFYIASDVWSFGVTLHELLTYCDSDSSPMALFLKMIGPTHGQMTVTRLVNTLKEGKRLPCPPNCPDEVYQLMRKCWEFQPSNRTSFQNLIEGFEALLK

Consider `COCCS(=O)(=O)c1ccc(OC(F)F)c(-c2nn(C)cc2NC(=O)c2cnn3cccnc23)c1` [Example 14, N-[3-[2-(difluoromethoxy)-5-(2-methoxyethylsulfonyl)phenyl]-1-methyl-pyrazol-4-yl]pyrazolo[1,5-a]pyrimidine-3-carboxamide], for which the Ki (in general, a measure of affinity in units of concentration, obtained from inhibition or displacement) in series [1] was found to be 490 pM. Moreover, in series [2], the “Mouse LTB %” value amounted to 80.1%.

As to `Cn1cc(NC(=O)c2cnn3cccnc23)c(-c2cc(S(C)(=O)=O)ccc2OC(F)F)n1` [Example 17, N-[3-[2-(difluoromethoxy)-5-methylsulfonyl-phenyl]-1-methyl-pyrazol-4-yl]pyrazolo[1,5-a]pyrimidine-3-carboxamide], the Ki in series [1] came to 220 pM. Also, the “Mouse LTB %” value in series [2] is 85.8%.

With `CN1CCCC1CCn1cc(S(=O)(=O)c2ccc(OC(F)F)c(-c3nn(C)cc3NC(=O)c3cnn4cccnc34)c2)cn1` (stereo in doubt) [Example 56, N-[3-[2-(difluoromethoxy)-5-[1-[2-[(2R)-1-methylpyrrolidin-2-yl]ethyl]pyrazol-4-yl]sulfonyl-phenyl]-1-methyl-pyrazol-4-yl]pyrazolo[1,5-a]pyrimidine-3-carboxamide], the Ki in series [1] was 710 pM. The “Mouse LTB %” value in series [2] amounted to 91.4%.

Take `Cn1cc(NC(=O)c2cnn3cccnc23)c(-c2cc(S(=O)(=O)CCCO)ccc2OC(F)F)n1` [Example 63, N-[3-[2-(difluoromethoxy)-5-(3-hydroxypropylsulfonyl)phenyl]-1-methyl-pyrazol-4-yl]pyrazolo[1,5-a]pyrimidine-3-carboxamide]: in series [1], the Ki is 580 pM. In addition, the “Mouse LTB %” value in series [2] is reported as 80.5%.

Turning to `CNS(=O)(=O)c1ccc(OC(F)F)c(-c2nn(C)cc2NC(=O)c2cnn3cccnc23)c1` [Example 26, N-[3-[2-(difluoromethoxy)-5-(methylsulfamoyl)phenyl]-1-methyl-pyrazol-4-yl]pyrazolo[1,5-a]pyrimidine-3-carboxamide], the Ki in series [1] worked out at 160 pM. In series [2], the “Mouse LTB %” value was found to be 86.9%.

`Cn1cc(NC(=O)c2cnn3cccnc23)c(-c2cc(S(=O)(=O)c3ccncc3)ccc2OC(F)F)n1` [Example 16, N-[3-[2-(difluoromethoxy)-5-(4-pyridylsulfonyl)phenyl]-1-methyl-pyrazol-4-yl]pyrazolo[1,5-a]pyrimidine-3-carboxamide]: the inhibition constant Ki in series [1] came to 320 pM. Besides, the “Mouse LTB %” value in series [2] was found to be 87.3%.

As for `C[C@H](O)CS(=O)(=O)c1ccc(OC(F)F)c(-c2nn(C)cc2NC(=O)c2cnn3cccnc23)c1` (stereo in doubt) [Example 15, N-[3-[2-(difluoromethoxy)-5-[rac-(2S)-2-hydroxypropyl]sulfonyl-phenyl]-1-methyl-pyrazol-4-yl]pyrazolo[1,5-a]pyrimidine-3-carboxamide], in series [1], the Ki was found to be 430 pM. Moreover, the “Mouse LTB %” value in series [2] is on record as 85.7%.

As for `CC(CO)S(=O)(=O)c1ccc(OC(F)F)c(-c2nn(C)cc2NC(=O)c2cnn3cccnc23)c1` (single isomer, unassigned) [Example 24, N-[3-[2-(difluoromethoxy)-5-(2-hydroxy-1-methyl-ethyl)sulfonyl-phenyl]-1-methyl-pyrazol-4-yl]pyrazolo[1,5-a]pyrimidine-3-carboxamide], in series [1], the Ki worked out at 460 pM. For the same compound, the “Mouse LTB %” value in series [2] is given as 81.7%.

For the compound `CN(CCO)S(=O)(=O)c1ccc(OC(F)F)c(-c2nn(C)cc2NC(=O)c2cnn3cccnc23)c1` [Example 73, N-(3-(2-(difluoromethoxy)-5-(N-(2-hydroxyethyl)-N-methylsulfamoyl)phenyl)-1-methyl-1H-pyrazol-4-yl)pyrazolo[1,5-a]pyrimidine-3-carboxamide], the Ki in series [1] turned out to be 630 pM. In addition, the “Mouse LTB %” value in series [2] was 81.8%.

With `Cn1cc(NC(=O)c2cnn3cccnc23)c(-c2cc(S(=O)(=O)N3CCC3)ccc2OC(F)F)n1` [Example 21, N-[3-[5-(azetidin-1-ylsulfonyl)-2-(difluoromethoxy)phenyl]-1-methyl-pyrazol-4-yl]pyrazolo[1,5-a]pyrimidine-3-carboxamide], the Ki in series [1] worked out at 220 pM. Besides, the “Mouse LTB %” value in series [2] is 83%.
